Measured values from ChEMBL document CHEMBL5291721, “A preclinical secondary pharmacology resource illuminates target-adverse drug reaction associations of marketed drugs” (Nat Commun, 2023).

Tests used:
[1] = molecular target: D(3) dopamine receptor (Homo sapiens, UniProt P35462)
[2] = molecular target: T1, Estrogen receptor (Homo sapiens, UniProt P03372)
T1 sequence (P03372 whole entry): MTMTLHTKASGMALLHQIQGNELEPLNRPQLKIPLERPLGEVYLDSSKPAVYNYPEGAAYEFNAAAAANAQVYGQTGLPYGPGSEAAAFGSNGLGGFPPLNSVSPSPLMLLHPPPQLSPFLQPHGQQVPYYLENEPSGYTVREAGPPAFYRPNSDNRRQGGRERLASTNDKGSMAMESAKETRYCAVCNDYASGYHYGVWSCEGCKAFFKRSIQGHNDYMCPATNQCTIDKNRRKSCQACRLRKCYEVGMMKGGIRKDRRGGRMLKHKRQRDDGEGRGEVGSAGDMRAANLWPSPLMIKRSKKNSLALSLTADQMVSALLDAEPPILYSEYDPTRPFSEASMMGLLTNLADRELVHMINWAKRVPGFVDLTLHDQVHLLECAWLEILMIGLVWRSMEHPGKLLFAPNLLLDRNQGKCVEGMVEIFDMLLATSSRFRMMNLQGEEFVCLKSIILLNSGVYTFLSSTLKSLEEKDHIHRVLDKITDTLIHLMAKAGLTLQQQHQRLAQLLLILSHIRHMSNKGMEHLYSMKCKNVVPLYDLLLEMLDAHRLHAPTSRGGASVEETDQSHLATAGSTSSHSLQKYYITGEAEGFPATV

[3] = molecular target: T2, Mu-type opioid receptor (Homo sapiens, UniProt P35372)
T2 sequence (P35372 whole entry): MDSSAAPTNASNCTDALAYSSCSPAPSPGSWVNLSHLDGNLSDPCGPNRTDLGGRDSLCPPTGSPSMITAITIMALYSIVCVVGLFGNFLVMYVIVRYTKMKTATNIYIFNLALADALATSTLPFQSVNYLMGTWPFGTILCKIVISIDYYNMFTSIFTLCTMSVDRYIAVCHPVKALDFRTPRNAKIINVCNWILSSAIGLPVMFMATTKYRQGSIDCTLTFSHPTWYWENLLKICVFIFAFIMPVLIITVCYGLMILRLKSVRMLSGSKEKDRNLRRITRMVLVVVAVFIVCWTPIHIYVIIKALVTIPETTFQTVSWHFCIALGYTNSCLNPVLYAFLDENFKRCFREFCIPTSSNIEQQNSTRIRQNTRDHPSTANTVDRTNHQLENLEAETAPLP

[4] = molecular target: T3, Alpha-2C adrenergic receptor (Homo sapiens, UniProt P18825); format: functional
T3 sequence (P18825 whole entry): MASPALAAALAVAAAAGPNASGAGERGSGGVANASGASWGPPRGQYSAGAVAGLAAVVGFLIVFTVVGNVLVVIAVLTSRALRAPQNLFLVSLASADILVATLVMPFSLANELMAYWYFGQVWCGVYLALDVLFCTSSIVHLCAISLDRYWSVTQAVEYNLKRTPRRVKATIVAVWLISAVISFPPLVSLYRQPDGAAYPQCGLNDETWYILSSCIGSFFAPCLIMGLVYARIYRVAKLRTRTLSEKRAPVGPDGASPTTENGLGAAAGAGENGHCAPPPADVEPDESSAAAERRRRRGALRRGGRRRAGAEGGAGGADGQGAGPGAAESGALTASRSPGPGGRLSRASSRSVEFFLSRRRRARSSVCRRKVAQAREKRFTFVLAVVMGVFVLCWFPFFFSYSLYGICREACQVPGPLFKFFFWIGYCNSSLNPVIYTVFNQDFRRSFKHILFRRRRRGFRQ

[5] = molecular target: T4, Cannabinoid receptor 1 (Homo sapiens, UniProt P21554); format: functional, cell-based
T4 sequence (P21554 whole entry): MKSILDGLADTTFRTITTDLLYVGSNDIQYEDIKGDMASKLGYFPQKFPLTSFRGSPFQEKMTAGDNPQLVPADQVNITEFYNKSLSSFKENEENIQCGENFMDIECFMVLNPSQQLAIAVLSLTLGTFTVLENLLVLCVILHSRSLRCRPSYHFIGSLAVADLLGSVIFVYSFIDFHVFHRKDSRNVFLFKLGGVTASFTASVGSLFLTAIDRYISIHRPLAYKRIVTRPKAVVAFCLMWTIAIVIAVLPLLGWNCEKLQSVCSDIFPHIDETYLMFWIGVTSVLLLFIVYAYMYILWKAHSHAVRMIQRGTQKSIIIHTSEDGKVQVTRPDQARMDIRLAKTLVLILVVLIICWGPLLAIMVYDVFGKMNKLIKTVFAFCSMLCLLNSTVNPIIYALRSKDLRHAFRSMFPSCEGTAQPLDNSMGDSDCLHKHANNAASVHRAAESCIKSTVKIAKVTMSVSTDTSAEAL

[6] = molecular target: T5, 5-hydroxytryptamine receptor 2B (Homo sapiens, UniProt P41595); format: functional, cell-based
T5 sequence (P41595 whole entry): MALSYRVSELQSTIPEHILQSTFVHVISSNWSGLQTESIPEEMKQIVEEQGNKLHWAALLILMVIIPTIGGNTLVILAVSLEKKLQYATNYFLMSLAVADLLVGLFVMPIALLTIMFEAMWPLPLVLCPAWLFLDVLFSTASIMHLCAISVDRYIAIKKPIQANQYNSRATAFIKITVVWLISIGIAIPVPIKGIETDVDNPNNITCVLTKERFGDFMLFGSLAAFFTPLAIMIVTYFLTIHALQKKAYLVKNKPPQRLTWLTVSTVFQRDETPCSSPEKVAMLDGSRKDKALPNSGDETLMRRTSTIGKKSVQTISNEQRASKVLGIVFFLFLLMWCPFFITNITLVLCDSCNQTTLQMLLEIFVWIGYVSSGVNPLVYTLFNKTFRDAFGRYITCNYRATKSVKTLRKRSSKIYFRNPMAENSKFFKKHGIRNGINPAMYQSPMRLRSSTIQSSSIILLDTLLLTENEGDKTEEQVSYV

[7] = molecular target: T1, Estrogen receptor; remark: listed apart in the source
[8] = molecular target: T6, B2 bradykinin receptor (Homo sapiens, UniProt P30411)
T6 sequence (P30411 whole entry): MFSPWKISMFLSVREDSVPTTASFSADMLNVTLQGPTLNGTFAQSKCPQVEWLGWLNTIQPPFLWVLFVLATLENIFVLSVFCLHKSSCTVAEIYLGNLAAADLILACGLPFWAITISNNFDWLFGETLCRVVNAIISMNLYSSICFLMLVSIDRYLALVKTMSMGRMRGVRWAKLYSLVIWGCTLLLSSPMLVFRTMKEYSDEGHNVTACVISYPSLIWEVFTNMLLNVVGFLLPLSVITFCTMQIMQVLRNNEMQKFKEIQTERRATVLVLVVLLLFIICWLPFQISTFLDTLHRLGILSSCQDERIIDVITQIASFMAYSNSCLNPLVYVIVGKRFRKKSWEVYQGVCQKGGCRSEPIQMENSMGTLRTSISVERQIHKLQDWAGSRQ

[9] = molecular target: T5, 5-hydroxytryptamine receptor 2B; format: functional, cell-based; remark: listed apart in the source
[10] = molecular target: T4, Cannabinoid receptor 1; format: functional, cell-based; remark: listed apart in the source
[11] = molecular target: Melanocortin receptor 3 (Homo sapiens, UniProt P41968)
Melanocortin receptor 3, sequence (P41968 whole entry): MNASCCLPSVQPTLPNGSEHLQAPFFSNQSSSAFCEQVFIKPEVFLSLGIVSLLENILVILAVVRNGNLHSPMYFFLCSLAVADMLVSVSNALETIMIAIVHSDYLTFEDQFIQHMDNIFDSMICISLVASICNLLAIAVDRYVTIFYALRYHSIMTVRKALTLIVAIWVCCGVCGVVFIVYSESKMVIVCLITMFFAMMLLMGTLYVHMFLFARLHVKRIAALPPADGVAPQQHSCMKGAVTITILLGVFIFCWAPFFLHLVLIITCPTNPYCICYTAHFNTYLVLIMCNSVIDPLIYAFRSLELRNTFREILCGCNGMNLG

[12] = molecular target: T2, Mu-type opioid receptor; assay: biochemical; format: functional
[13] = molecular target: T7, Alpha-1A adrenergic receptor (Homo sapiens, UniProt P35348); format: functional, cell-based
T7 sequence (P35348 whole entry): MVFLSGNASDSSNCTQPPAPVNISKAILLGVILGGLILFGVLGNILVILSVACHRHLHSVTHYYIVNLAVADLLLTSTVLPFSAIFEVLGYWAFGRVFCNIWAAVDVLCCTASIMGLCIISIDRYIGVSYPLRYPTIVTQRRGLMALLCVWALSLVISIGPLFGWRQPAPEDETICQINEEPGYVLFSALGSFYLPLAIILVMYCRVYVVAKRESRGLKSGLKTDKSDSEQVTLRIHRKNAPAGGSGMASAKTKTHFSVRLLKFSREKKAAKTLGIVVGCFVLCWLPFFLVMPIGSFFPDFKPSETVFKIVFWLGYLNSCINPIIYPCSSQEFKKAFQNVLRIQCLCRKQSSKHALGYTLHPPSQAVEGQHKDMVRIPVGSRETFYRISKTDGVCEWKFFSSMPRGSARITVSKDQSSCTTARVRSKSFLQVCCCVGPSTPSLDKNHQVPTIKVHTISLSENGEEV

[14] = molecular target: T8, Adenosine receptor A3 (Homo sapiens, UniProt P0DMS8)
T8 sequence (P0DMS8 whole entry): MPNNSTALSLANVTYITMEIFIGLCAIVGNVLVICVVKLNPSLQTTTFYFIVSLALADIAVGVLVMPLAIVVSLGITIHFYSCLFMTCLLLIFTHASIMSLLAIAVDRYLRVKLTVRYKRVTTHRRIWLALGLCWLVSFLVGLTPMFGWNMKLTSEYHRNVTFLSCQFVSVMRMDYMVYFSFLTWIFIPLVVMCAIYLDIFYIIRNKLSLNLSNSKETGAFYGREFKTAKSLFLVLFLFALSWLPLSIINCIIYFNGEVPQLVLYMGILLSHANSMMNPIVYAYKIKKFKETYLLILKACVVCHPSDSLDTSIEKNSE
Also: assay procedure not described here.

D(3) dopamine receptor, sequence (P35462 whole entry): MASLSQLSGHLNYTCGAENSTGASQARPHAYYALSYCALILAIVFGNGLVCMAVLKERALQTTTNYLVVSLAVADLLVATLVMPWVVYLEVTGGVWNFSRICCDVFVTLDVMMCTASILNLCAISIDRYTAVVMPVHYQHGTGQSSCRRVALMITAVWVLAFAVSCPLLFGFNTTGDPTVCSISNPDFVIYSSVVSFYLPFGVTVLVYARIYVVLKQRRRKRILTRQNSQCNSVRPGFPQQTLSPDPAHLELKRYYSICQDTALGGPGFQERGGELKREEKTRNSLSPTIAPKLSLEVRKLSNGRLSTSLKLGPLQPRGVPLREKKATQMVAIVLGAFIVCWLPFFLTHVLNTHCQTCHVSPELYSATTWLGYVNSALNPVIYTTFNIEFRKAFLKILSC

Compound	AC50 [1] [µM]	AC50 [2] [µM]	AC50 [3] [µM]	AC50 [4] [µM]	AC50 [5] [µM]	AC50 [6] [µM]	AC50 [7] [µM]	AC50 [8] [µM]	AC50 [9] [µM]	AC50 [10] [µM]	AC50 [11] [µM]	AC50 [12] [µM]	AC50 [13] [µM]	AC50 [14] [µM]
COc1ccc2c(C(=S)N(C)CC(=O)O)cccc2c1C(F)(F)F [TOLRESTAT]	> 30	> 30	> 30	–	–	–	–	–	–	–	–	–	–	–
Cc1cccc(C)c1NC(=O)CC12CCCN1CCC2 [PILSICAINIDE]	–	–	–	> 30	> 30	> 30	> 30	> 30	> 30	> 30	> 30	> 30	–	–
CC(=O)[C@H]1CC[C@H]2[C@@H]3C=CC4=CC(=O)CC[C@@]4(C)[C@@H]3CC[C@]12C [DYDROGESTERONE]	> 30	–	> 30	–	–	–	–	–	–	–	–	–	> 30	> 30
CCOC(=O)C1=C(C)NC(C)=C(C(=O)OCC)C1c1ccccc1/C=C/C(=O)OC(C)(C)C [LACIDIPINE]	–	–	–	> 30	> 30	> 30	> 30	> 30	> 30	> 30	> 30	> 30	–	–
CC(C)c1cccc(C(C)C)c1O [PROPOFOL]	–	–	–	> 30	> 30	> 30	–	–	> 30	> 30	> 30	–	–	–
CCC1(c2ccc(N)cc2)CCC(=O)NC1=O (stereo unspecified) [AMINOGLUTETHIMIDE]	–	–	–	> 30	> 30	–	–	> 30	> 30	> 30	> 30	> 30	–	–
CC1=C(C(=O)OC(C)C)C(c2cccc([N+](=O)[O-])c2)C(C(=O)OC2CN(C(c3ccccc3)c3ccccc3)C2)=C(N)N1 (stereo unspecified) [AZELNIDIPINE]	–	–	–	13	> 30	> 30	> 3	> 10	> 30	> 30	> 30	> 30	–	–
CC(O)(P(=O)(O)O)P(=O)(O)O [ETIDRONIC ACID]	> 30	–	> 30	–	–	–	–	–	–	–	–	–	> 30	> 30
CC(=O)OCC(=O)[C@@]1(O)CC[C@H]2[C@@H]3CCC4=CC(=O)CC[C@]4(C)[C@H]3[C@@H](O)C[C@@]21C [HYDROCORTISONE ACETATE]	–	–	> 30	–	–	–	–	–	–	–	–	–	> 30	> 30
CNCCc1ccc(OC(=O)C(C)C)c(OC(=O)C(C)C)c1 [IBOPAMINE]	–	–	–	8.4	> 30	> 30	> 30	> 30	> 30	> 30	> 30	> 30	–	–
O=C1OC(OC(=O)c2cccnc2Nc2cccc(C(F)(F)F)c2)c2ccccc21 (stereo unspecified) [TALNIFLUMATE]	–	–	–	> 30	> 30	> 30	–	> 30	> 30	> 30	> 30	> 30	–	–
